Test results taken from US20190226949A1, “IRIDIUM COMPLEXES FOR CELLULAR IMAGING” (UNIVERSITY OF SOUTH AUSTRALIA, priority 2016, published 2019).
Several values for one entry are separate records, joined by “and”; a condition that tells them apart may be missing. Equal values may be shown once.

Tests used:
[1] = test system: H9c2 rat cardiomyoblast cells; experiment: Staining and co-staining of live H9c2 cells, confocal and two-photon microscopy; type: cell-based
Experimental: Live H9c2 rat cardiomyoblasts were incubated with the iridium complexes for 30 minutes. Complexes were made to a final concentration of 20 μM in the cell culture medium with DMSO concentration <0.2%. Under these conditions, the luminescence from the iridium complexes within the cells was detected via confocal microscopy under single-photon excitation (403 nm) or two-photon excitation (810-840 nm).
To determine the localisation of the iridium complexes, co-staining experiments were carried out with the use of ER-Tracker™ Red (endoplasmic reticulum), LysoTracker® Red DND-99 (acidic compartments), MitoTracker® Red (mitochondria), BODIPY® 500/510 C1, C12(fatty acid) or β-BODIPY® FL HPC (phospholipids). […] This difference was also in agreement with the trend of the quantum yield data illustrated before and detection of internalised complex by ICP-MS.
H9c2 rat cardiomyoblast cell line was a kind gift from Professor Janna Morrison (University of South Australia). The H9c2 cells were maintained in high-glucose (4500 mg/L) DMEM medium (Sigma-Aldrich, USA) containing 10% fetal bovine serum (FBS; In Vitro Technologies, USA) and 2 mM L-glutamine (Sigma-Aldrich, USA) at 37° C. and 5% CO2. The H9c2 cells were cultured in […] flasks, and cells (1×10^6 cells/mL) that had been passaged, from two up to five times were used for experiments. For live cell imaging and MTS assay, the H9c2 cells (1×10^5 cells/mL) were cultured overnight in either ibidi μ-Slide 8 wells in a final volume of 250 μL or 96-well microtiter plate in a final volume of 200 μL in absence of Ir-based molecular probes.
The H9c2 cells were incubated with 20 μM of Ir-based molecular probes for 30 minutes in FBS-free media (300 μL) at 37° C. and 5% CO2. These cells were washed twice with phosphate buffered saline (PBS) and once with FBS-free media, and then co-stained with either ER-Tracker™ Red (BODIPY® TR Glibenclamide), LysoTracker® Red DND-99, MitoTracker® Red CMXRos (1H,5H,11H,15H-Xantheno[2,3,4-ij:5,6,7-i′j′]diquinolizin-18-ium, 9-[4-(chloromethyl)phenyl]-2,3,6,7,12,13,16,17-octahydro-, chloride), β-BODIPY® FL C5-HPC (2-(4,4-Difluoro-5,7-Dimethyl-4-Bora-3a,4a-Diaza-s-Indacene-3-Pentanoyl)-1-Hexadecanoyl-sn-Glycero-3-Phosphocholine) or BODIPY® 500/510 C1, C12 (4,4-Difluoro-5-Methyl-4-Bora-3a,4a-Diaza-s-Indacene-3-Dodecanoic Acid), which were obtained from Life Technologies Australia Pty Ltd, Australia. Cell biology analysis was carried out with a minimum of two experimental groups. Imaging analysis was performed using a Nikon A1+ confocal microscope equipped with 403 nm, 488 nm, 561 nm and 640 nm solid-state lasers (Nikon, Japan) and OKOLab Microscope Incubator (Okolab USA Inc., USA). The final preparation of the images was conducted with Adobe Photoshop CC (Adobe Systems Inc., USA).
The H9c2 cells were incubated with 20 μM of Ir-based molecular probes for 30 minutes in FBS-free media (300 μL) at 37° C. and 5% CO2. These cells then were washed with phosphate buffered saline (PBS) and imaged using Zeiss LSM710 META NLO inverted microscope supplemented with a two-photon Mai-Tai®, tunable Ti:Sapphire femtosecond pulse laser (710-920 nm, Spectra-Physics). Fluorescence of Ir-based molecular probes was detected using the following settings: two-photon excitation wavelength 830 nm, beam splitter MBS 690+, emission interval 520-650 nm. The H9c2 cells were exposed to two-photon illumination between 810-840 nm. A continuum of lambda stack images was captured across the emission spectrum 416-728 nm. The images were acquired using a Plan-APOCHROMAT 63X/NA1.4 oil immersion objective. The final preparation of the images was conducted with Adobe Photoshop CC (Adobe Systems Inc., USA).

[2] = Photophysical measurements (absorption, emission, lifetime, quantum yield) in diluted solutions; type: physicochemical; conditions: for Emission λem / τaer, excited state lifetime (relative weight in parentheses) / τdeaer, excited state lifetime (relative weight in parentheses): 298K; for Φaer, quantum yield / Φdeaer, quantum yield: versus Ru(bpy)3^2+ in water (φr = 0.028); for Φdeaer, quantum yield / τdeaer, excited state lifetime (relative weight in parentheses): deaerated; for knr: calculated as [(1 − φ)/τ] from deaerated solutions; for kr: calculated as [φ/τ] from deaerated solutions; for Φ, quantum yield: versus Ru(bpy)3^2+ in water
From the text: A summary of the photophysical data for the complexes as diluted solutions (10^−5 M) in dichloromethane, water, PBS, lysosomal fluid solution, and ethyl laurate is reported in Table 1. All the listed aqueous media also contain 0.1% DMSO to favour the solubilisation of the complexes. The various solvents have been chosen to identify potential modulations on the photophysical behaviour of the iridium complexes in diverse cellular environments such as cytoplasm, endosome/lysosomes acidic organelles, or lipid-rich compartments like membranes, endoplasmic reticulum, and lipid droplets. In general, the photophysical characteristics were measured in aerated solutions to take into account the presence of oxygen in live cells. On the other hand, dichloromethane solutions were compared as aerated and degassed to confirm oxygen sensitivity and triplet character of the excited states of the complexes.
Absorption spectra were recorded at room temperature using a Cary 4000 UV/Vis spectrometer. Uncorrected steady state emission and excitation spectra were recorded on an Edinburgh FLSP980-S2S2-stm spectrometer equipped with: i) a temperature-monitored cuvette holder; ii) 450 W Xenon arc lamp; iii) double excitation and emission monochromators; iv) a Peltier cooled Hamamatsu R928P photomultiplier tube (spectral range 200-870 nm). Emission and excitation spectra were corrected for source intensity (lamp and grating) and emission spectral response (detector and grating) by a calibration curve supplied with the instrument. According to the approach described by Demas and Crosby, luminescence quantum yields (Φem) were measured in optically dilute solutions (O.D.<0.1 at excitation wavelength) obtained from absorption spectra on a wavelength scale [nm] and compared to the reference emitter by the following equation: […]
where A is the absorbance at the excitation wavelength (λ), I is the intensity of the excitation light at the excitation wavelength (λ), n is the refractive index of the solvent, D is the integrated intensity of the luminescence and Φ is the quantum yield. The subscripts r and x refer to the reference and the sample, respectively. The quantum yield determinations were performed at identical excitation wavelength for the sample and the reference, therefore cancelling the I(λr)/I(λx) term in the equation. The quantum yields of complexes were measured against Rubipy in water (Φr=0.028). Emission lifetimes (z) were determined with the time correlated single photon counting technique (TCSPC) with the same Edinburgh FLSP980-S2S2-stm spectrometer using either a pulsed picosecond LED (EPLED/EPL 377 nm, FHWM<800 ps) or a microsecond flashlamp. The goodness of fit was assessed by minimising the reduced χ^2 function and by visual inspection of the weighted residuals. The solvents used for the preparation of the solutions for the photophysical investigations were of LR grade and the water was deionised. Degassing of the dichlorometane solutions was performed using the freeze-pump-thaw method. Experimental uncertainties are estimated to be ±8% for lifetime determinations, ±20% for quantum yields, ±2 nm and ±5 nm for absorption and emission peaks, respectively.

[3] = Lipophilicity by shake-flask method (7.4-buffered PBS / n-octanol); type: physicochemical; conditions: 7.4-buffered PBS solution and n-octanol
Experimental: The lipophilicity of the iridium complexes was measured by the shake-flask method using 7.4-buffered PBS and n-octanol as solvents (Table 2). The values range between 1.49 and 2.68 are typical for cyclometalated iridium complexes that have not been bioconjugated. […] In general, neutral complexes have log D7.4 values above 2.00 and there is an increased in lipophilicity of extending the tetrazolato ligand with the addition of a phenyl spacer in [Ir(ppy)2(TzPyPhCN)], or by extending the conjugation on passing from pyridine to quinoline or isoquinoline for [Ir(ppy)2(TzQn)] and [Ir(ppy)2(TziQn)]. Methylation in all cases reduces lipophilicity to log D7.4 values […], with the same trend within the family of methylated complexes as previously observed for the neutral ones.

Row | SMILES | emission detected from stained cells ([1]; live H9c2, 20 μM, 30 minutes) | Emission λem ([2]; DCM, 10^−5 M) | Φaer, quantum yield ([2]; DCM, aerated) | Φdeaer, quantum yield ([2]; DCM) | emission in the various solvents ([2]; dichloromethane, water, PBS, lysosomal fluid, ethyl laurate) | logD7.4, distribution coefficient [3] | τaer, excited state lifetime (relative weight in parentheses) ([2]; DCM, aerated) | τdeaer, excited state lifetime (relative weight in parentheses) ([2]; DCM) | knr ([2]; DCM) | kr ([2]; DCM) | Absorption λabs [nm] (10^4ε [M^−1cm^−1]) ([2]; H2O with 0.1% DMSO, 10^−5 M) | Emission λem ([2]; H2O with 0.1% DMSO, aerated) | Φ, quantum yield ([2]; H2O with 0.1% DMSO, aerated) | logD ([3]; pH 7.4, read-out: logD7.4, distribution coefficient) | cellular localisation (co-staining) ([1]; live H9c2, 20 μM, 30 minutes) | emission profile from cells ([1]; live H9c2, one-photon or two-photon excitation) | Absorption λabs [nm] (10^4ε [M^−1cm^−1]) ([2]; DCM, 10^−5 M)
1 | C[n+]1nc2[n](n1)[Ir]13([c]4ccccc4-c4cccc[n+]41)([c]1ccccc1-c1cccc[n+]13)[n+]1cc(C#N)ccc1-2 [[Ir(ppy)2(MeTzPyCN)]^+] | no emission was detected from stained cells | 680 nm | 0.012 | 0.014 | appreciable emission only in dichloromethane solution |  |  |  |  |  |  |  |  |  |  |  | 
2 | N#Cc1ccc2[n+](c1)[Ir]13([c]4cc(F)cc(F)c4-c4cccc[n+]41)([c]1cc(F)cc(F)c1-c1cccc[n+]13)[n]1nnnc1-2 [[Ir(F2ppy)2(TzPyCN)]] |  | 542 nm | 0.042 | 0.406 |  | 2.01 ± 0.05 | 140 ns | 697 ns | 0.852 10^6s^−1 | 5.825 10^5s^−1 | 256 (4.83) nm (10^4ε [M^−1cm^−1]) and 302 (3.36) nm (10^4ε [M^−1cm^−1]) and 366 (1.16) nm (10^4ε [M^−1cm^−1]) | 552 nm | 0.057 |  |  |  | 
3 | C[n+]1nc2[n](n1)[Ir]13([c]4ccccc4-c4cccc[n+]41)([c]1ccccc1-c1cccc[n+]13)[n+]1c-2ccc2ccccc21 [[Ir(ppy)2(MeTzQn)]^+] |  | 635 nm | 0.028 | 0.043 |  |  | 218 ns | 546 ns | 1.753 10^6s^−1 | 0.788 10^5s^−1 | 251 (8.30) nm (10^4ε [M^−1cm^−1]) and 307 (2.52) nm (10^4ε [M^−1cm^−1]) and 364 (1.09) nm (10^4ε [M^−1cm^−1]) | 630 nm | 0.004 | 1.68 ± 0.05 | preferential localisation in the endoplasmic reticulum and fatty acids and phospholipids | blue-shifted and almost superimposable bands between these cationic complexes and their neutral analogues | 
4 | c1cc[c]2c(c1)-c1cccc[n+]1[Ir]213([c]2ccccc2-c2cccc[n+]21)[n]1nnnc1-c1ccc2ccccc2[n+]13 [[Ir(ppy)2(TzQn)]] |  | 580 nm | 0.021 | 0.065 |  | 2.23 ± 0.04 | 153 ns | 831 ns | 1.125 10^6s^−1 | 0.782 10^5s^−1 | 266 (4.41) nm (10^4ε [M^−1cm^−1]) and 350 (2.35) nm (10^4ε [M^−1cm^−1]) and 425 (0.97) nm (10^4ε [M^−1cm^−1]) | 600 nm | 0.039 |  |  |  | 263 (8.44) nm (10^4ε [M^−1cm^−1]) and 345 (1.97) nm (10^4ε [M^−1cm^−1]) and 428 (0.42) nm (10^4ε [M^−1cm^−1])
5 | c1cc[c]2c(c1)-c1cccc[n+]1[Ir]213([c]2ccccc2-c2cccc[n+]21)[n]1nnnc1-c1c2ccccc2cc[n+]13 [[Ir(ppy)2(TziQn)]] |  | 535, nm and 575 nm and 620 nm | 0.036 | 0.144 |  | 2.57 ± 0.05 | 497 ns | 6713 ns | 0.128 10^6s^−1 | 0.214 10^5s^−1 | 268 (3.42) nm (10^4ε [M^−1cm^−1]) and 350 (2.00) nm (10^4ε [M^−1cm^−1]) and 435 (0.80) nm (10^4ε [M^−1cm^−1]) | 590 nm | 0.018 |  |  |  | 260 (9.77) nm (10^4ε [M^−1cm^−1]) and 340 (3.13) nm (10^4ε [M^−1cm^−1]) and 424 (0.75) nm (10^4ε [M^−1cm^−1])
6 | N#Cc1ccc(-c2ccc3[n+](c2)[Ir]24([c]5ccccc5-c5cccc[n+]52)([c]2ccccc2-c2cccc[n+]24)[n]2nnnc2-3)cc1 [[Ir(ppy)2(TzPyPhCN)]] |  | 560 nm | 0.023 | 0.149 |  | 2.68 ± 0.08 | 114 ns | 880 ns | 0.967 10^6s^−1 | 1.693 10^5s^−1 | 286 (1.87) nm (10^4ε [M^−1cm^−1]) and 350 (0.86) nm (10^4ε [M^−1cm^−1]) and 421 (0.34) nm (10^4ε [M^−1cm^−1]) | 580 nm | 0.055 |  |  |  | 268 (3.95) nm (10^4ε [M^−1cm^−1]) and 290 (3.64) nm (10^4ε [M^−1cm^−1]) and 345 (0.58) nm (10^4ε [M^−1cm^−1]) and 423 (0.27) nm (10^4ε [M^−1cm^−1])
